According to PubChem BioAssay AID2060502 (Molecular Pharmacology Branch, DTP, NCI, 2025):

Tested on: 885724-159-R-J1-PDC complex spheroid viability
Test: Anticancer human tumor 885724-159-R-J1-PDC patient-derived pancreatic adenocarcinoma cell line growth inhibition [GQUAD]
Conditions: for IC50: curve of first compound; for viability, T/C: stronger effect = lower value
How it was run: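 Tumor cells were grown as complex spheroids with HUVEC endothelial cells and mesenchymal stem cells as stroma. G-quadruplex stabilizers were combined with targeted agents over half-log dilutions from near the clinical Cmax, or from 10 microM.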

[1] = second compound 0.0316 µM, first compound 0.0316 µM
[2] = second compound 0.0316 µM, first compound 0.1 µM
[3] = second compound 0.0316 µM, first compound 0.316 µM
[4] = second compound 0.0316 µM, first compound 1 µM
[5] = second compound 0.0316 µM, first compound 3.16 µM
[6] = second compound 0.0316 µM, first compound 10 µM
[7] = second compound 0.1 µM, first compound 0.0316 µM
[8] = second compound 0.1 µM, first compound 0.1 µM
[9] = second compound 0.1 µM, first compound 0.316 µM
[10] = second compound 0.1 µM, first compound 1 µM
[11] = second compound 0.1 µM, first compound 3.16 µM
[12] = second compound 0.1 µM, first compound 10 µM
[13] = second compound 0.316 µM, first compound 0.0316 µM
[14] = second compound 0.316 µM, first compound 0.1 µM
[15] = second compound 0.316 µM, first compound 0.316 µM
[16] = second compound 0.316 µM, first compound 1 µM
[17] = second compound 0.316 µM, first compound 3.16 µM
[18] = second compound 0.316 µM, first compound 10 µM
[19] = second compound 1 µM, first compound 0.0316 µM
[20] = second compound 1 µM, first compound 0.1 µM
[21] = second compound 1 µM, first compound 0.316 µM
[22] = second compound 1 µM, first compound 1 µM
[23] = second compound 1 µM, first compound 3.16 µM
[24] = second compound 1 µM, first compound 10 µM
[25] = second compound 3.16 µM, first compound 0.0316 µM
[26] = second compound 3.16 µM, first compound 0.1 µM
[27] = second compound 3.16 µM, first compound 0.316 µM
[28] = second compound 3.16 µM, first compound 1 µM
[29] = second compound 3.16 µM, first compound 3.16 µM
[30] = second compound 3.16 µM, first compound 10 µM
[31] = second compound 10 µM, first compound 0.0316 µM
[32] = second compound 10 µM, first compound 0.1 µM
[33] = second compound 10 µM, first compound 0.316 µM
[34] = second compound 10 µM, first compound 1 µM
[35] = second compound 10 µM, first compound 3.16 µM
[36] = second compound 10 µM, first compound 10 µM
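Also: spheroids exposed to agents for seven days before readout.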
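For viability, T/C in this document: percent of vehicle control viability where 100% = DMSO wells.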

C#Cc1c(F)ccc2cc(O)cc(-c3ncc4c(N5CC6CCC(C5)N6)nc(OCC56CCCN5CC(F)C6)nc4c3F)c12 (stereo unspecified) + CN(C)c1ccc(Nc2c3ccc(NC(=O)CCN4CCCC4)cc3nc3cc(NC(=O)CCN4CCCC4)ccc23)cc1
IC50 (second compound 0.0316 µM): 4.17 µM | IC50 (second compound 0.1 µM): 4.29 µM | IC50 (second compound 0.316 µM): 5.21 µM | IC50 (second compound 1 µM): 4.33 µM | IC50 (second compound 3.16 µM): 2.94 µM | IC50 (second compound 10 µM): 2.13 µM | viability, T/C [1]: 92.1% | viability, T/C [2]: 112% | viability, T/C [3]: 94.8% | viability, T/C [4]: 86.9% | viability, T/C [5]: 58.8% | viability, T/C [6]: 22.8% | viability, T/C [7]: 114% | viability, T/C [8]: 100% | viability, T/C [9]: 98.3% | viability, T/C [10]: 86.2% | viability, T/C [11]: 56.7% | viability, T/C [12]: 26.1% | viability, T/C [13]: 95% | viability, T/C [14]: 100% | viability, T/C [15]: 96.6% | viability, T/C [16]: 79.2% | viability, T/C [17]: 68.1% | viability, T/C [18]: 28.7% | viability, T/C [19]: 89.4% | viability, T/C [20]: 72.7% | viability, T/C [21]: 87.8% | viability, T/C [22]: 79.3% | viability, T/C [23]: 59.5% | viability, T/C [24]: 24.6% | viability, T/C [25]: 78.3% | viability, T/C [26]: 68.1% | viability, T/C [27]: 69.5% | viability, T/C [28]: 60.9% | viability, T/C [29]: 51.4% | viability, T/C [30]: 24.7% | viability, T/C [31]: 64.8% | viability, T/C [32]: 68.7% | viability, T/C [33]: 58% | viability, T/C [34]: 84.2% | viability, T/C [35]: 40.2% | viability, T/C [36]: 2.3%

CC(C)n1c(=O)n(C)c2cnc3cc(F)c(-c4ccc(OCCCN5CCCCC5)nc4)cc3c21 + Cc1cnc(CNC(=O)c2c(=O)c3ccc(N4CCCN(C)CC4)nc3n3c2sc2ccccc23)cn1
IC50 (second compound 0.0316 µM): > 10 µM | IC50 (second compound 0.1 µM): > 10 µM | IC50 (second compound 0.316 µM): > 10 µM | IC50 (second compound 1 µM): > 10 µM | IC50 (second compound 3.16 µM): 6.48 µM | IC50 (second compound 10 µM): 5.27 µM | viability, T/C [1]: 91.3% | viability, T/C [2]: 94.1% | viability, T/C [3]: 95.3% | viability, T/C [4]: 114% | viability, T/C [5]: 77.6% | viability, T/C [6]: 65.7% | viability, T/C [7]: 108% | viability, T/C [8]: 107% | viability, T/C [9]: 96.1% | viability, T/C [10]: 106% | viability, T/C [11]: 93.6% | viability, T/C [12]: 67.2% | viability, T/C [13]: 92.6% | viability, T/C [14]: 93% | viability, T/C [15]: 88.5% | viability, T/C [16]: 108% | viability, T/C [17]: 81.2% | viability, T/C [18]: 64.2% | viability, T/C [19]: 82.5% | viability, T/C [20]: 87.1% | viability, T/C [21]: 90.5% | viability, T/C [22]: 94.6% | viability, T/C [23]: 78.5% | viability, T/C [24]: 53.1% | viability, T/C [25]: 73.2% | viability, T/C [26]: 73.4% | viability, T/C [27]: 78.8% | viability, T/C [28]: 68.3% | viability, T/C [29]: 67.8% | viability, T/C [30]: 39.9% | viability, T/C [31]: 76.1% | viability, T/C [32]: 71.1% | viability, T/C [33]: 73.8% | viability, T/C [34]: 70.8% | viability, T/C [35]: 61.7% | viability, T/C [36]: 35.3%

C=CC(=O)N1CCN(c2nc(=O)n(-c3c(C)ccnc3C(C)C)c3nc(-c4c(O)cccc4F)c(F)cc23)C(C)C1 (stereo unspecified) + Cc1[nH]c2ccc(F)cc2c1-c1nc2c3cccnc3c3ncccc3c2[nH]1
IC50 (second compound 0.0316 µM): > 10 µM | IC50 (second compound 0.1 µM): > 10 µM | IC50 (second compound 0.316 µM): > 10 µM | IC50 (second compound 1 µM): > 10 µM | IC50 (second compound 3.16 µM): < 0.0316 µM | IC50 (second compound 10 µM): > 10 µM | viability, T/C [1]: 97.3% | viability, T/C [2]: 106% | viability, T/C [3]: 98.4% | viability, T/C [4]: 104% | viability, T/C [5]: 98% | viability, T/C [6]: 97.2% | viability, T/C [7]: 105% | viability, T/C [8]: 97.6% | viability, T/C [9]: 98.7% | viability, T/C [10]: 106% | viability, T/C [11]: 109% | viability, T/C [12]: 99.2% | viability, T/C [13]: 95.5% | viability, T/C [14]: 105% | viability, T/C [15]: 92.8% | viability, T/C [16]: 94.3% | viability, T/C [17]: 122% | viability, T/C [18]: 88.6% | viability, T/C [19]: 73.7% | viability, T/C [20]: 71.9% | viability, T/C [21]: 69.7% | viability, T/C [22]: 73.6% | viability, T/C [23]: 78.7% | viability, T/C [24]: 73.7% | viability, T/C [25]: 45.9% | viability, T/C [26]: 29.1% | viability, T/C [27]: 33.4% | viability, T/C [28]: 38.5% | viability, T/C [29]: 33.4% | viability, T/C [30]: 27.8% | viability, T/C [31]: 64.3% | viability, T/C [32]: 70.3% | viability, T/C [33]: 72.1% | viability, T/C [34]: 79.2% | viability, T/C [35]: 73% | viability, T/C [36]: 65.9%
